Data taken from US10364216B2, “Alkenyl sulfate ester or salt thereof” (Kao Corporation, priority 2013, dated 2019).
Counter-ions that a name gives are not always drawn.

Test: Action of reinforcing sweetness (previous intake of trans-3-octenyl sulfate)
Type: in vivo, human
Settings: 5 mM, 60 seconds before sucralose or glycyrrhizin 0.25 mM
Method: To six examiners, 4 kinds of 10 mL aqueous solutions of sucrose standard (2.5, 5.0, 7.5 and 10.0 wt %) were presented. The examiners kept each of the solutions in their mouth for 5 seconds or so, and then spat the solution out, and were asked to consider the sweetness intensity at that time (0 to 15) to be 2.5, 5, 7.5 and 10, respectively. Next, the examiners kept 10 mL aqueous solution of sucralose (0.25 mM) in their mouth for 5 seconds or so without knowing the kind and the concentration of the sweetener, and then spat the solution out, and compared the sweetness intensity at that time with that of the aqueous sucrose standard solution, and evaluated the sweetness intensity with a number in a range of 0 to 15. Subsequently, the examiners kept 10 mL solution of 5 mM trans-3-octenyl sulfate in advance in their mouth for 5 seconds or so in advance, and then spat the solution out, and after passage of 60 seconds, the examiners kept 10 mL aqueous solution of sucralose (0.25 mM) in their mouth for 5 seconds or so, and then spat the solution out, and compared the sweetness intensity at that time with that of the aqueous sucrose standard solution, and evaluated the sweetness intensity with a number in a range of 0 to 15.
To six examiners, 4 kinds of 10 mL aqueous sucrose standard solutions (2.5, 5.0, 7.5 and 10.0 wt %) were presented. The examiners kept each of the solutions in their mouth for 5 seconds or so, and then spat the solution out, and were asked to consider the sweetness intensity at that time (0 to 15) to be 2.5, 5, 7.5 and 10, respectively. Next, the examiners kept 10 mL aqueous solution of glycyrrhizin (0.25 mM) in their mouth for 5 seconds or so without knowing the kind and the concentration of the sweetener, and then spat the solution out, and compared the sweetness intensity at that time with that of the aqueous sucrose standard solution, and evaluated the sweetness intensity with a number in a range of 0 to 15. Subsequently, the examiners kept 10 mL solution of 5 mM trans-3-octenyl sulfate in their mouth for 5 seconds or so in advance, and then spat the solution out, and after passage of 60 seconds, the examiners kept 10 mL aqueous solution of glycyrrhizin (0.25 mM) in their mouth for 5 seconds or so, and then spat the solution out, and compared the sweetness intensity at that time with that of the aqueous sucrose standard solution, and evaluated the sweetness intensity with a number in a range of 0 to 15.

CCCC/C=C/CCOS(=O)(=O)O [trans-3-octenyl sulfate]
Effect of previous intake on the sweetness of the sweetener: effect of reinforcing the sweetness of the sweetener
